In this test the test system is subjects with idiopathic dilated cardiomyopathy (IDC). The experiment in a line: Serial study of subjects with idiopathic dilated cardiomyopathy treated with β-blocking agents or placebo (LVEF / phenotype). It is filed as in vivo, human. The conditions noted are these: for phenotype: baseline versus after 6 months of treatment; for left ventricular ejection fraction (LVEF): subjects with baseline IDC, 6-7 month period, change versus baseline. The procedure: Dynamic expression profiling was performed in the intact human heart in 8 subjects with idiopathic dilated cardiomyopathy (IDC), on RNA extracted from RV septal endomyocardial biopsies performed at baseline and after 6 months treatment with β-blocking agents (n=6) or placebo (n=2). Affmetrix™ U95a GeneChips, which contain 12,625 gene sequences/chip, were used for expression profiling.
Endomyocardial biopsies were obtained during a 6-7 month period from eight subjects with baseline idiopathic dilated cardiomyopathy (IDC). Of these subjects, six were treated with the β-blocking agents carvedilol and metoprolol, and two were treated with placebo.
Biopsied samples obtained from these subjects were analyzed by quantitative reverse transcript polymerase chain reaction (QRT PCR), and the mRNAs obtained were further analyzed by Affymetrix Gene chip. Subjects with ideal substantial noise ratios were categorized in the low scaling factor group and those with substantial noise, which compromised quantitation, categorized in the high scaling factor group. Gene expression patterns were further compared between the seven subjects showing improved phenotypes and the one subject showing worsening phenotype. Of the four subjects in the low scaling group showing an improved LVEF, one had received placebo, one carvedilol, and one metoprolol, with the fourth subject treated with placebo showing a decrease LVEF. Of the four subjects in the high scaling group three received carvedilol and one received metoprolol.
Serial measurements of myocardial gene expression were performed on 4 subjects with […], at baseline and after 6 months of treatment with β-blocking agents (n=2, 1 carvediol and 1 metroprolol) or placebo (n=2). RNA was extracted from endomyocardial biopsy material, and expression profiling was performed via Affymetrix U95a GeneChips. […] In the three subjects who improved, a between-subject anaylsis was performed at baseline, and compared to a within-subject comparison between baseline and end of study.

Take `COc1ccccc1OCCNCC(O)COc1cccc2[nH]c3ccccc3c12` (stereo not shown) [carvedilol]: the phenotype entry is reported as “improvement in phenotype” and the “left ventricular ejection fraction (LVEF)” value is “improved”.
With `COCCc1ccc(OCC(O)CNC(C)C)cc1` (stereo not shown) [metoprolol], the phenotype result is “improvement in phenotype” and the “left ventricular ejection fraction (LVEF)” value was “improved”.

These data come from patent US20030096782A1, “Expression profiling in the intact human heart” (The Regents of the University of Colorado, priority 2001, published 2003).
